The results in this text go back to patent publication US4001218A, “Penicillins” (Bayer Aktiengesellschaft, priority 1972, dated 1977).

In one assay the test system is Staph. aureus 1756. The experiment in a line: MIC, test tube series dilution test, Staph. aureus 1756. The class given is cell-based, Staphylococcus aureus. The settings on record: for MIC: Staph. aureus 1756, 24 hours, 37°C.
The test system of a further assay is Enterococcus 9790. The experiment in a line: MIC, test tube series dilution test, Enterococcus 9790. The class given is cell-based. The settings on record: 24 hours, 37°C.
A further assay concerns Psdm. aerug. Walter. The assay is described as follows: MIC, test tube series dilution test, Psdm. aerug. Walter. The class given is cell-based, Pseudomonas aeruginosa. The settings on record: for MIC: Psdm. aerug. Walter, 24 hours, 37°C.
The next assay deals with E. coli 14. It is filed as cell-based. The settings on record: for MIC: E. coli 14, 24 hours, 37°C.
The next assay deals with E. coli A 261. The assay is described as follows: MIC, test tube series dilution test, E. coli A 261. It is filed as cell-based. The settings on record: 24 hours, 37°C.
The next assay relates to Proteus morg. 932. The assay is described as follows: MIC, test tube series dilution test, Proteus morg. 932. It is filed as cell-based. The settings on record: 24 hours, 37°C.
In a further assay the test system is Klebsiella 63. The assay is described as follows: MIC, test tube series dilution test, Klebsiella 63. The class given is cell-based. The settings on record: for MIC: Klebsiella 63, 24 hours, 37°C.
In the next assay the test system is Proteus vulg. 1017. It is filed as cell-based, Proteus vulgaris. The settings on record: Proteus 1017; 24 hours, 37°C.
The test system of a further assay is E. coli C 165. The assay is described as follows: MIC, test tube series dilution test, E. coli C 165. It is filed as cell-based. The settings on record: 24 hours, 37°C.
The next assay concerns Staph. aureus 133. It is filed as cell-based, Staphylococcus aureus. The settings on record: Staph. aureus 133; 24 hours, 37°C.
A further assay has as its system E. coli 183/58. The assay is described as follows: MIC, test tube series dilution test, E. coli 183/58. The class given is cell-based. The settings on record: 24 hours, 37°C.
The subject of the next assay is Klebsiella K 10. The assay is described as follows: MIC, test tube series dilution test, Klebsiella K 10. It is filed as cell-based. The settings on record: 24 hours, 37°C.
A further assay deals with Psdm. aerug. F 41. The experiment in a line: MIC, test tube series dilution test, Psdm. aerug. F 41. The class given is cell-based, Pseudomonas aeruginosa. The settings on record: Psdm. aerug. F 41; 24 hours, 37°C.

In the case of `CC1(C)S[C@@H]2[C@H](NC(=O)[C@H](NC(=O)c3ccc(NC(=O)C4CC=CCC4)cc3)c3ccccc3)C(=O)N2[C@H]1C(=O)O` (single isomer, unassigned) [Example 12, sodium D(-)-α-[4-(3-cyclohexene-1-carbonylamino-benzoylamino)]-benzylpenicillin], the MIC is 16 U/ml against Staph. aureus 1756; ~ 8 U/ml in the assay on Enterococcus 9790; 32 U/ml against Psdm. aerug. Walter; ~ 4 U/ml against E. coli 14; above 256 U/ml in the assay with E. coli A 261; above 256 U/ml against Proteus morg. 932. The MIC was 32 U/ml in the assay on Klebsiella 63; 16 U/ml against Proteus vulg. 1017; 8 U/ml against E. coli C 165; below 1 U/ml in the assay with Staph. aureus 133; 16 U/ml with E. coli 183/58; 32 U/ml in the assay on Klebsiella K 10. For the same compound, the MIC with Psdm. aerug. F 41 came out at 32 U/ml.

As to `CC1(C)S[C@@H]2[C@H](NC(=O)[C@H](NC(=O)c3ccc(NC(=O)CC4C=CCC4)cc3)c3ccccc3)C(=O)N2[C@H]1C(=O)[O-].[Na+]` (stereo partly drawn) [Example 8, sodium D(-)-α-(4-[2-cyclopentene-1-acetamido-benzoylamino])-benzylpenicillin], the MIC was 8 U/ml in the assay on Staph. aureus 1756; 8 U/ml against Enterococcus 9790; 64 U/ml with Psdm. aerug. Walter; above 256 U/ml in the assay with E. coli A 261; 128 U/ml against Proteus morg. 932; 32 U/ml against Klebsiella 63. The MIC was 64 U/ml against Proteus vulg. 1017; 8 U/ml in the assay with E. coli C 165; below 1 U/ml in the assay with Staph. aureus 133; 16 U/ml against E. coli 183/58; 64 U/ml with Klebsiella K 10; 64 U/ml against Psdm. aerug. F 41.

In the case of `CC1(C)S[C@@H]2[C@H](NC(=O)[C@H](NC(=O)c3ccc(NC(=O)c4cc(Cl)cc(Cl)c4)cc3)c3ccccc3)C(=O)N2[C@H]1C(=O)O` [Example 20], the MIC in the assay on Staph. aureus 1756 was ~ 4 U/ml; against Enterococcus 9790, ~ 4 U/ml; with Psdm. aerug. Walter it was ~ 4 U/ml; in the assay with E. coli 14, below 1 U/ml; with E. coli A 261 it was ~ 256 U/ml; in the assay on Proteus vulg. 1017, ~ 4 U/ml. The compound also registered an MIC with Staph. aureus 133 below 1 U/ml.

For the compound `Cc1cc(C)cc(C(=O)Nc2ccc(C(=O)N[C@@H](C(=O)N[C@@H]3C(=O)N4[C@@H]3SC(C)(C)[C@@H]4C(=O)O)c3ccccc3)cc2)c1` [Example 21], the MIC with Enterococcus 9790 was ~ 4 U/ml; in the assay with E. coli 14 it was below 1 U/ml; in the assay with E. coli A 261, ~ 256 U/ml; with Staph. aureus 133, below 1 U/ml; against E. coli 183/58, ~ 1 U/ml; in the assay with Psdm. aerug. F 41 it was ~ 16 U/ml.

As to `CC1(C)S[C@@H]2[C@H](NC(=O)[C@H](NC(=O)c3ccc(NC(=O)c4ccc(C(F)(F)F)cc4)cc3)c3ccccc3)C(=O)N2[C@H]1C(=O)O` [Example 23], the MIC in the assay on E. coli 14, in the assay on Staph. aureus 133 and in the assay with E. coli 183/58 was below 1 U/ml in each case.

With `CC1(C)S[C@@H]2[C@H](NC(=O)[C@H](NC(=O)c3ccc([N+](=O)[O-])cc3)c3ccccc3)C(=O)N2[C@H]1C(=O)O` [Example 33, sodium D(-)-α-(4-nitro-benzoylamino)-benzylpenicillin], the MIC with Staph. aureus 1756 is listed as 32 U/ml; in the assay with Enterococcus 9790, 4 U/ml; in the assay on E. coli 14 it was ~ 8 U/ml; in the assay with E. coli A 261, above 256 U/ml; against Proteus morg. 932, 256 U/ml; in the assay with Klebsiella 63 it was 128 U/ml. The MIC is 64 U/ml in the assay with Proteus vulg. 1017; ~ 32 U/ml against E. coli C 165; below 1 U/ml with Staph. aureus 133; 32 U/ml in the assay on E. coli 183/58; 128 U/ml against Klebsiella K 10; 64 U/ml in the assay with Psdm. aerug. F 41.

Regarding `CC1(C)S[C@@H]2[C@H](NC(=O)[C@H](NC(=O)c3ccc(N)cc3)c3ccccc3)C(=O)N2[C@H]1C(=O)O` [Example 34, sodium D(-)-α-(4-amino-benzoylamino)-benzylpenicillin], the MIC against Staph. aureus 1756 is 32 U/ml; in the assay on Enterococcus 9790 it was ~ 4 U/ml; in the assay on E. coli 14, ~ 16 U/ml; with E. coli A 261 it was above 256 U/ml; in the assay on Proteus morg. 932, above 256 U/ml; against Klebsiella 63, 128 U/ml. For the same compound, the MIC against Proteus vulg. 1017 was 128 U/ml; with E. coli C 165 it was 32 U/ml; in the assay with Staph. aureus 133, below 1 U/ml; against Klebsiella K 10 it was 256 U/ml; against Psdm. aerug. F 41, 64 U/ml.

With `CC1(C)S[C@@H]2[C@H](NC(=O)[C@H](NC(=O)c3ccc(NC(=O)CN=[N+]=[N-])cc3)c3ccccc3)C(=O)N2[C@H]1C(=O)O` [Example 36], the MIC in the assay with Staph. aureus 1756 is 64 U/ml; with Enterococcus 9790, 8 U/ml; in the assay with Psdm. aerug. Walter it was ~ 64 U/ml; against E. coli 14, 8 U/ml; against E. coli A 261 it was above 256 U/ml; in the assay on Klebsiella 63, 64 U/ml. In addition, the MIC with Proteus vulg. 1017 is listed as 128 U/ml; against E. coli C 165 it was ~ 16 U/ml; in the assay on Staph. aureus 133 it was below 1 U/ml; with E. coli 183/58, 32 U/ml; against Klebsiella K 10 it was 128 U/ml; with Psdm. aerug. F 41, 32 U/ml.

Take `CNC(=O)Nc1ccc(C(=O)N[C@@H](C(=O)N[C@@H]2C(=O)N3[C@@H]2SC(C)(C)[C@@H]3C(=O)O)c2ccccc2)cc1` [Example 44]: the MIC in the assay with Staph. aureus 1756 is on record as 64 U/ml; against Enterococcus 9790, 4 U/ml; against E. coli 14 it was ~ 8 U/ml; in the assay on Klebsiella 63, 128 U/ml; against Proteus vulg. 1017, above 256 U/ml; with E. coli C 165 it was 16 U/ml. For the same compound, the MIC is listed as below 1 U/ml against Staph. aureus 133, 256 U/ml with Klebsiella K 10 and ~ 64 U/ml against Psdm. aerug. F 41.

On to `CC1(C)S[C@@H]2[C@H](NC(=O)[C@H](NC(=O)c3ccc(NC(=O)Nc4ccc(F)cc4)cc3)c3ccccc3)C(=O)N2[C@H]1C(=O)O` [Example 46], for which the MIC with Enterococcus 9790 is on record as ~ 4 U/ml; against E. coli 14 it was below 1 U/ml; with E. coli C 165 it was ~ 4 U/ml; in the assay on Staph. aureus 133, below 1 U/ml.

For `CNC(=S)Nc1ccc(C(=O)N[C@@H](C(=O)N[C@@H]2C(=O)N3[C@@H]2SC(C)(C)[C@@H]3C(=O)O)c2ccccc2)cc1` [Example 47], the MIC in the assay with Staph. aureus 1756 is given as 64 U/ml; with Enterococcus 9790, 4 U/ml; in the assay with Psdm. aerug. Walter, above 256 U/ml; against E. coli 14 it was 16 U/ml; in the assay with E. coli A 261, above 256 U/ml; with Proteus morg. 932, above 256 U/ml. For the same compound, the MIC against Klebsiella 63 is reported as 128 U/ml; against Proteus vulg. 1017, 32 U/ml; against E. coli C 165, 32 U/ml; with Staph. aureus 133, below 1 U/ml; against Klebsiella K 10, 256 U/ml; in the assay with Psdm. aerug. F 41 it was 64 U/ml.

Take `CC1(C)S[C@@H]2[C@H](NC(=O)[C@H](NC(=O)c3cc(NC(=O)C4CCC4)ccc3Cl)c3ccccc3)C(=O)N2[C@H]1C(=O)O` [Example 52]: the MIC against Staph. aureus 1756 is listed as 32-64 U/ml; against Enterococcus 9790 it was 32-64 U/ml; against Psdm. aerug. Walter, 128-256 U/ml; in the assay on Klebsiella 63 it was 128-256 U/ml; with Proteus vulg. 1017, above 256 U/ml; in the assay on E. coli C 165 it was 128-256 U/ml. For the same compound, the MIC is recorded as below 1 U/ml against Staph. aureus 133, 32-64 U/ml against E. coli 183/58, 128-256 U/ml against Klebsiella K 10 and 128-256 U/ml against Psdm. aerug. F 41.

For `CC1(C)S[C@@H]2[C@H](NC(=O)[C@H](NC(=O)c3cc(NC(=O)C4CC4)ccc3Cl)c3ccccc3)C(=O)N2[C@H]1C(=O)O` [Example 53], the MIC was 32-64 U/ml against Staph. aureus 1756; 2-4 U/ml against Enterococcus 9790; 32 U/ml in the assay on E. coli 14; 128-256 U/ml in the assay with Klebsiella 63; above 256 U/ml against Proteus vulg. 1017; 128-256 U/ml with E. coli C 165. In addition, the MIC was below 1 U/ml in the assay with Staph. aureus 133, 128-256 U/ml with E. coli 183/58, above 256 U/ml in the assay with Klebsiella K 10 and 128-256 U/ml in the assay with Psdm. aerug. F 41.

Turning to `CC1(C)S[C@@H]2[C@H](NC(=O)[C@H](NC(=O)CNC(=O)c3ccc(NC(=O)C4CC4)cc3)c3ccccc3)C(=O)N2[C@H]1C(=O)O` [Example 64], the MIC against Staph. aureus 1756 is reported as 16 U/ml; against Enterococcus 9790 it was 8 U/ml; with E. coli A 261, above 256 U/ml; in the assay on Proteus morg. 932 it was above 256 U/ml; in the assay on Klebsiella 63, 64 U/ml; against Proteus vulg. 1017, 64 U/ml. Besides, the MIC was 32 U/ml against E. coli C 165, 64 U/ml against E. coli 183/58, 128 U/ml against Klebsiella K 10 and 256 U/ml in the assay on Psdm. aerug. F 41.

On to `CC1(C)S[C@@H]2[C@H](NC(=O)[C@H](NC(=O)c3ccc(NC(=O)C4CCCC4)cc3O)c3ccccc3)C(=O)N2[C@H]1C(=O)O` [Example 77, sodium D(-)-α-(4-cyclopentanecarbonylamino-2-hydroxybenzoylamino)benzylpenicillin], for which the “Activity against Staph. aureus 1756 (minimum inhibitory concentration)” value with Staph. aureus 1756 (24 hours' incubation) was 32-64 U/ml. For the same compound, the “Activity against Psdm. aerug. Walter (minimum inhibitory concentration)” value in the assay on Psdm. aerug. Walter (24 hours' incubation) was 8-16 U/ml. The “Activity against E. coli 14 (minimum inhibitory concentration)” value in the assay on E. coli 14 (24 hours' incubation) is recorded as 2-4 U/ml. Further, in the assay on Klebsiella 63 (24 hours' incubation), the “Activity against Klebs. 63 (minimum inhibitory concentration)” value is listed as 32-64 U/ml.
